The IC50 is the midpoint of a concentration-inhibition curve. A lower IC50 goes with higher potency.

The assay deals with PIK3CA (human) (UniProt P42336). Kind of assay: Assessment of PIK3CA Kinase Activity.
Chain of PIK3CA (human) (P42336 whole entry, looked up): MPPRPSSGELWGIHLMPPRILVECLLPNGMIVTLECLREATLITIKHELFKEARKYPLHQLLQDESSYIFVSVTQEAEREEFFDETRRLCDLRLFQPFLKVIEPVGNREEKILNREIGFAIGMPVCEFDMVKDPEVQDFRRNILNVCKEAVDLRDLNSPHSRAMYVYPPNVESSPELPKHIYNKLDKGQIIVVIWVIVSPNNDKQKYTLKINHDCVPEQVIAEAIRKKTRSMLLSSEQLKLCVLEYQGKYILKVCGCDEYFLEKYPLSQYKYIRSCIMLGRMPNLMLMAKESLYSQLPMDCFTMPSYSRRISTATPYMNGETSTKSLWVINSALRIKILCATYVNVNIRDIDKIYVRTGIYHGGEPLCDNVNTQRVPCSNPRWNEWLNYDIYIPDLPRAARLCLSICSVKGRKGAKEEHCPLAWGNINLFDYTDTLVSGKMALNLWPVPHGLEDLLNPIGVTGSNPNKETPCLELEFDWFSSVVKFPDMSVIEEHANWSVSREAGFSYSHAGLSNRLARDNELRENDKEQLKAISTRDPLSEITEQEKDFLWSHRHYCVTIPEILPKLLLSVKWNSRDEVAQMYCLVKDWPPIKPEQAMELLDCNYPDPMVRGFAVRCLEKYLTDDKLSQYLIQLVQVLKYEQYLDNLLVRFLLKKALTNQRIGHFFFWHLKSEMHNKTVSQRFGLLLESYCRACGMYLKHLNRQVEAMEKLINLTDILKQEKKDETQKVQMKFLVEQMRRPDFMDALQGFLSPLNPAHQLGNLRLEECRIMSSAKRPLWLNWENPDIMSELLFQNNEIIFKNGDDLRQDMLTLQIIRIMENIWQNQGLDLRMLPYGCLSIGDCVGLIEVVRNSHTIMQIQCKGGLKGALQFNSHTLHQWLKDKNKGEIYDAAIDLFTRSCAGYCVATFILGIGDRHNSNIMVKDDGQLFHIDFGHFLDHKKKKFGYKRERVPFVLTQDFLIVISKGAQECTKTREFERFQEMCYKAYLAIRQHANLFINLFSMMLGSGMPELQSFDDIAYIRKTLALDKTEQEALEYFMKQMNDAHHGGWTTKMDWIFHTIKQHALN
Turning to `CCNC(=O)N[C@H]1CC[C@@H](Nc2nn3c(-c4cnc(N)c(C(F)(F)F)c4)c(Cl)nc3s2)CC1`, the IC50 is 50 to 1000 nM.

For the molecule `CN[C@H]1CC[C@H](N(C)c2nn3c(-c4cnc(N)c(C(F)(F)F)c4)cnc3s2)CC1`, the IC50 fell in the range of 50 to 1000 nM.

Take `CO[C@H]1CC[C@H](N(C)c2nn3c(-c4cnc(N)c(C(F)(F)F)c4)cnc3s2)CC1`: the IC50 was found to be 27 nM.

For `COC1CCN(c2nn3c(-c4cnc(N)c(C(F)(F)F)c4)cnc3s2)CC1`, the IC50 lay within 50 to 1000 nM.

As for `Nc1ncc(-c2c(Cl)nc3sc(N[C@H]4CC[C@H](NS(=O)(=O)c5ccc(F)cc5F)CC4)nn23)cc1C(F)(F)F`, the half-inhibitory concentration (IC50) was determined as 1700 nM.

`Nc1ncc(-c2c(Cl)nc3sc(N[C@H]4CC[C@@H](N)CC4)nn23)cc1C(F)(F)F` had an IC50 of 50 to 1000 nM.

`CC(C)(C)OC(=O)NCC1CCN(c2nn3c(-c4cnc(N)c(C(F)(F)F)c4)cnc3s2)CC1`: the IC50 lay within 50 to 1000 nM.

In turn, `Nc1ncc(-c2cnc3sc(NC4CCC5(CC4)OCCO5)nn23)cc1C(F)(F)F` displayed an IC50 of 34 nM.

`Nc1ncc(-c2cnc3sc(N4CCCC(CO)C4)nn23)cc1C(F)(F)F` (centres undefined) came in with a half-maximal inhibitory concentration (IC50) of 179 nM.

Consider `NCCNc1nn2c(-c3cnc(N)c(C(F)(F)F)c3)cnc2s1`, for which the concentration for half-maximal inhibition (IC50) was 50 to 1000 nM.

Molecule `Nc1ncc(-c2cnc3sc(N4C[C@H]5CNC[C@H]5C4)nn23)cc1C(F)(F)F` had an IC50 of 50 to 1000 nM.

In turn, `CC(=O)NC1CCCN(c2nn3c(-c4cnc(N)c(C(F)(F)F)c4)cnc3s2)C1` (centres undefined) showed a concentration for half-maximal inhibition (IC50) of 274 nM.

Turning to `Nc1ncc(-c2cnc3sc(N4CCC(C(=O)O)CC4)nn23)cc1C(F)(F)F`, the IC50 was in the range of 50 to 1000 nM.

The molecule `CN(c1nn2c(-c3cnc(N)c(C(F)(F)F)c3)cnc2s1)[C@H]1CC[C@](C)(O)CC1` displayed a 50% inhibitory concentration (IC50) of 205 nM.

In the case of `Cc1cncc(-c2cnc3sc(NC4CCN(S(C)(=O)=O)CC4)nn23)c1`, the IC50 fell in the range of 50 to 1000 nM.

With `CN1CCN(c2ncc(-c3cnc4sc(NC5CCN(S(C)(=O)=O)CC5)nn34)cc2C(F)(F)F)CC1`, the IC50 was 23000 nM.

For `CS(=O)(=O)N1CC2(CCCN(c3nn4c(-c5cnc(N)c(C(F)(F)F)c5)cnc4s3)C2)C1`, the IC50 was 50 to 1000 nM.

`Nc1ncc(-c2cnc3sc(N4CCCC(N)C4)nn23)cc1C(F)(F)F` (centres undefined) came in with a concentration for half-maximal inhibition (IC50) of 50 to 1000 nM.

`COc1cncc(-c2cnc3sc(NC4CCNCC4)nn23)c1` registered an IC50 of 50 to 1000 nM.

For the origin of these results see the Kinase Knowledgebase extract (Sharma et al. 2016).
